# According to patent US11648222B2, “Use of CYP26-resistant RAR alpha selective agonists in the treatment of cancer” (Io Therapeutics, Inc., priority 2015, dated 2023):
# Legend:
# [1] = system: MM H929 cell lines and MM CD138+ primary cells; experiment: qRT-PCR of B cell and PC markers in MM cells with or without BM stroma coculture; assay type: cell-based, human; conditions: for mRNA expression of B cell and PC markers (BCL6, BLIMP1, XBP1s, CHOP): compound 1 μM for 5 days; for expression of differentiation markers by qRT-PCR or flow cytometry: liquid conditions versus BM stroma
# Procedure: Cell cultures. All cell lines were purchased from the American Type Culture Collection. H929, MM1s, and U266 cells were cultured in RPMI 1640 with 10% FCS (Sigma-Aldrich), 2 mM L-glutamine, and 100 μg/ml penicillin-streptomycin (P/S). OP-9 cells were cultured in α-MEM, 20% FCS, L-glutamine, and P/S. Cell lines were authenticated by short-tandem repeat profiling.
# Primary MM cells were obtained from patients with newly diagnosed or relapsed MM under an IRB-approved protocol at The Johns Hopkins University. Briefly, mononuclear cells were isolated from fresh BM aspirates by density gradient centrifugation (Ficoll-Paque); CD138+ cells were then selected via magnetic beads and columns and incubated in RPMI 1640, 10% FCS, L-glutamine, and P/S at 37° C.
# (§1) Coculture experiments. 24-well plates were coated with 0.1% gelatin in PBS for 30 min at 37° C. The gelatin solution was removed, and the stromal cells were cultured overnight at a density of 5×10^4 cells/well to obtain a confluent monolayer. At that time, MM cell lines or primary MM cells (1×10^5 in 2 ml) were added to the stroma cultures. The stroma cocultures were incubated at 37° C. in RPMI containing 10% FCS, L-glutamine, and P/S, with or without AGN19194310 (1 μM for 5 days), R115866 (1 μM for 5 days), IRX5183 (1 μM for 5 days), or BTZ (2.5 nM for 48 hr).
# (§2) qRT-PCR. Total RNA was extracted using the RNeasy Mini Kit (QIAGEN) according to the manufacturer's instructions. cDNA was synthesized by reverse transcription using the iScript cDNA Synthesis Kit (Bio-Rad). qRT-PCR was performed with iTaq SYBR Green Supermix (Bio-Rad) using sequence specific primers. Gene expression was normalized to GAPDH, and relative quantification was calculated using ΔΔCt. All experiments were performed in duplicate and run on the Bio-Rad CFX96 machine.
# MM cells = experiment: Surface CD138 expression of MM cells by flow cytometry; assay type: cell-based, human
# Procedure: as §1
# Flow cytometry. Following treatment, MM cells were collected, washed with PBS, and stained for 15 min at room temperature with phycoerythrin-conjugated (PE-conjugated) anti-CD138. Cells were washed to remove unbound antibody and evaluated in a FACSCalibur system (BD Biosciences). Stromal cells were identified by GFP expression, and viable cells were identified using 7-aminoactinomycin D (7-AAD). To calculate cell numbers, live GFP-cells were normalized to calibration beads.
# [2] = system: MM cell lines and MM CD138+ primary cells; experiment: BTZ sensitivity (clonogenic or cellular recovery) of MM cells after incubation with BM stroma; assay type: cell-based, human; conditions: for effect on stroma-induced BTZ resistance: stroma coculture with compound 1 μM 5 days
# Procedure: as §1
# Mobilization experiments. MM cells were separated from BM stromal cells by gently pipetting several times around the well. Detached cells were centrifuged, resuspended in fresh media, and incubated in a 24-well plate for 1 hr at 37° C. During this short incubation period, contaminating stromal cells attached to the well, while MM cells remained in suspension. MM cells were then recovered by gently pipetting. This protocol was used for qRT-PCR and CFU coculture experiments. The purity achieved using this protocol was confirmed by flow cytometry to be 98%-99% MM cells and less than 2% contaminating stroma.
# Clonogenic assays. After treatment, MM cells were collected, washed with PBS, and plated at a density of 5,000 cells/ml in 1 ml of 1.32% methylcellulose supplemented with 30% FBS, 10% BSA, L-glutamine, P/S, and 0.1 mM p-ME. Cells were plated in triplicate in 35-mm culture dishes, incubated at 37° C., and scored for the presence of colonies 14 days later.
# [3] = system: OCI-AML 3, Kasumi-1 and APL NB4 cells; experiment: Clonogenic growth of AML cell lines in the presence or absence of stroma; assay type: cell-based; conditions: for clonogenic growth (CFU) compared to control: off and on stroma, NB4: 10^-7 M IRX5183, 10^-8 M AM80, OCI-AML3, Kasumi-1: 10^-6 M IRX5183, 10^-7 M AM80; for clonogenic growth: presence or absence of stroma
# Procedure: The BM stroma, which expresses inducibly high levels of CYP26, metabolically inactivates ATRA and provides a protected environment for AML cancer stem cells. Synthetic, CYP26-resistant RARα agonists, such as IRX5183 and AM80, should be able to bypass stroma-mediated protection of AML cells and differentiate the cancer stem cells resident in the protected environment of bone marrow niche. To test these hypotheses, clonogenic growth experiments were conducted in the non-APL AML cell lines OCI-AML 3 and Kasumi-1 and APL NB4 cells, which were treated with ATRA, IRX5183, and AM80 in the presence or absence of stroma.
# [4] = system: FLT3/ITD acute myeloid leukemia (AML) cells; conditions: recent studies; cited from earlier work
# [5] = system: H929 luciferase+ (Luc+) cells; experiment: Systemic MM xenograft, bioluminescence imaging; assay type: in vivo, NSG mice; conditions: 4 weeks; for tumor burden (bioluminescence): monotherapy, BTZ 0.5 mg/kg i.p. twice weekly or IRX 10 mg/kg once daily
# Procedure: For the systemic MM model, 2×10^6 Luc+/GFP+H929 cells were injected via the tail vein into 16-week-old male NSG mice. After engraftment, as determined by an exponential increase in bioluminescence, mice were treated with BTZ (0.5 mg/kg i.p.) twice weekly and with IRX (10 mg/kg) once daily. Tumor burden was assessed by bioluminescence, as above.
# To test whether retinoids can enhance BTZ activity in MM, a systemic MM xenograft was developed by injecting 2×10^6 H929 luciferase+(Luc+) cells via the tail vein of nonobese, diabetic, severe combined immunodeficiency IL-2 receptor γ-KO (NSG) mice. The animals were randomized to receive IRX, BTZ, or a combination of both, and disease burden was followed weekly by bioluminescence imaging (FIG. 4).
# [6] = system: H929 Luc+ cells with WT or Smo-KO stroma; experiment: Subcutaneous xenograft model of MM-niche interactions (WT or Smo-KO stroma); assay type: in vivo, NSG mice
# Procedure: Mouse xenografts. 1×10^6 H929 Luc+ cells and 1×10^6 mouse BM stromal cells were resuspended in 100 μl Matrigel, diluted with RPMI (1:1), and injected subcutaneously into 16-week-old male NSG mice. After 4 days, treatment with BTZ (0.5 mg/kg i.p. twice weekly) and IRX (10 mg/kg i.p. daily) was initiated. Tumor burden was assessed by bioluminescence using the In Vivo Imaging System (PerkinElmer). For imaging, mice were exposed to 120 mg/kg D-luciferin via intraperitoneal injection […] before imaging and were anesthetized using isoflurane. Images were analyzed with Living Image Software, version 2.5 (PerkinElmer), and data were quantified as photons/second.
# To study to what extent an RA-low environment created by the BM stroma and enhanced by MM cells via paracrine Hedgehog signaling contributes to BTZ resistance, a xenograft model of MM-niche interactions was developed. Each mouse carried 2 subcutaneous tumors consisting of H929 Luc+ cells and either WT (anterior tumors) or Smo-KO stroma (posterior tumors). Mice were treated with IRX (10 mg/kg i.p. daily), BTZ (0.5 mg/kg i.p. twice weekly), or a combination of both. The growth of tumors bearing WT or Smo-KO stroma was not different in untreated or IRX-treated groups (FIGS. 7 and 8). […] While some tumors in the treatment group receiving combined IRX and BTZ appeared to have regressed completely, even after anatomical study, this was not the case for all the mice in this group.
# [7] = system: BM stromal cells cocultured with MM cells; experiment: Stromal Cyp26a1 upregulation by MM cells in coculture; assay type: cell-based, mouse; conditions: SMO inhibitor in coculture
# Procedure: as §1, §2
# To confirm the role of paracrine Hedgehog on this interaction, smoothened (Smo), a membrane receptor that transduces SHH signaling, was knocked out at the genomic level in the mesenchymal compartment. For this, BM mesenchymal cells derived from Smo^fl/fl mice were transduced with a retroviral vector encoding Cre recombinase (Smo-KO stroma). […]
# [8] = system: relapse/refractory MM patients; conditions: in combination with BTZ; cited from earlier work
# BM stromal cells = experiment: Effect of soluble factors on CYP26A1 expression in BM stromal cells; assay type: cell-based; conditions: soluble factor added to BM stromal cells
# Procedure: as §2
# [9] = BM stromal cell cocultures incubated with compound
compound,measurement,setting,value
CCc1ccc(C2=CC(C)(C)Sc3ccc(C#Cc4ccc(C(=O)O)cc4)cc32)cc1 [AGN194310],"mRNA expression of B cell and PC markers (BCL6, BLIMP1, XBP1s, CHOP)",[1]; absence of stroma (Liquid),mimicked the changes induced by BM stromal cells
same,surface CD138 expression,"MM cells; absence of stroma, incubation with compound",markedly decreased
same,effect on BTZ sensitivity,"[2]; absence of stroma, compound 1 μM 5 days, then BTZ",decreasing BTZ sensitivity
"CC1(C)CCC(C)(C)c2cc(NC(=O)c3ccc(C(=O)O)cc3)ccc21 [AM80, 4-[(5,6,7,8-tetrahydro-5,5,8,8-tetramethyl-2-naphthalenyl)carbamoyl]benzoic acid]",clonogenic growth (CFU) compared to control,[3],decrease in clonogenic growth compared to control
same,clonogenic growth,[3],inhibited clonogenic growth in the presence of stroma but not as effectively as IRX5183
same,differentiation and sensitivity to FLT3 inhibitors,[4],differentiates FMS-like tyrosine kinase 3/internal tandem duplication (FLT3/ITD) acute myeloid leukemia (AML) cells and increase their sensitivity to FLT3 inhibitors
"CC(C)C[C@H](NC(=O)[C@H](Cc1ccccc1)NC(=O)c1cnccn1)B(O)O [BTZ, bortezomib]",BTZ resistance after separation from BM stroma,"[2]; H929 cells, 5-day stroma coculture, fresh media 0 to 48 hr, then BTZ",remained partially resistant to BTZ for up to 48 hr following detachment from stroma
same,sensitivity of MM cells to BTZ,[2]; Smo-KO stroma compared with WT stroma,increased sensitivity to BTZ
same,sensitivity of MM cells to BTZ,"[2]; absence of BM stroma (liquid), BTZ 2.5 nM 48 hr",highly sensitive to BTZ
same,sensitivity of MM cells to BTZ,"[2]; after 5 days incubation with BM stroma, BTZ 2.5 nM 48 hr",incubation with BM stroma induced BTZ resistance
same,tumor burden (bioluminescence),[5],decreased tumor growth compared with untreated controls
same,tumor response (bioluminescence),"[6]; tumors carrying Smo-KO stroma, BTZ 0.5 mg/kg i.p. twice weekly",significant response
same,tumor response (bioluminescence),"[6]; tumors with WT stroma, BTZ 0.5 mg/kg i.p. twice weekly",refractory to BTZ treatment
CC1(C)CCC(C)(C)c2c1cc(C(=O)Nc1cc(F)c(C(=O)O)c(F)c1)c(O)c2Cl [IRX5183],expression of differentiation markers by qRT-PCR or flow cytometry,[1],"induced comparable changes, irrespective of the presence or absence of BM stroma"
same,"mRNA expression of B cell and PC markers (BCL6, BLIMP1, XBP1s, CHOP)",[1]; stroma cocultures,restored all markers to levels comparable to those of liquid control conditions
same,surface CD138 expression,MM cells; [9],restored CD138 expression
same,effect on stroma-induced BTZ resistance,[2]; then BTZ,overcome
same,disease burden (bioluminescence),[5]; IRX 10 mg/kg daily combined with BTZ 0.5 mg/kg twice weekly,significant (P<0.01) decrease in disease burden
same,tumor burden (bioluminescence),[5],decrease in tumor burden compared with untreated mice
same,growth of tumors bearing WT versus Smo-KO stroma,[6]; IRX 10 mg/kg i.p. daily alone,not different
same,tumor response (bioluminescence),"[6]; combination of IRX 10 mg/kg daily and BTZ 0.5 mg/kg twice weekly, WT and Smo-KO stroma","significant and equivalent response, regardless of the phenotype of the stromal compartment"
same,clonogenic growth (CFU) compared to control,[3],decrease in clonogenic growth compared to control
same,clonogenic growth,[3],inhibited clonogenic growth to a similar extent in the presence or absence of stroma
CCC(CC)C(c1ccc(Nc2nc3ccccc3s2)cc1)n1cncn1 (centres unmarked) [R115866],expression of differentiation markers by qRT-PCR or flow cytometry,[1],did not significantly affect the expression of differentiation markers
same,"mRNA expression of B cell and PC markers (BCL6, BLIMP1, XBP1s, CHOP)",[1]; stroma cocultures,restored all markers to levels comparable to those of liquid control conditions
same,surface CD138 expression,MM cells; [9],restored CD138 expression
same,effect on BTZ resistance after separation from BM stroma,"[2]; H929 cells, coculture treated with compound 1 μM before separation",prevented the development of a BTZ-resistant phenotype
same,effect on stroma-induced BTZ resistance,[2]; then BTZ,overcome
CC1=C2C[C@H]3[C@@H](CC=C4C[C@@H](O)CC[C@@]43C)[C@@H]2CC[C@]12O[C@@H]1C[C@H](C)CN[C@H]1[C@H]2C [cyclopamine],stromal Cyp26a1 upregulation by MM cells,[7],partially overcame stromal Cyp26a1 upregulation by MM cells
c1cc(CN2CCCNCCNCCCNCC2)ccc1CN1CCCNCCNCCCNCC1 [plerixafor],response rates,[8],improved response rates
"IL-6: cytokine, soluble factor produced by MM cells",upregulation of CYP26A1 on BM stromal cells,BM stromal cells,no significant effects
TNF-α,upregulation of CYP26A1 on BM stromal cells,BM stromal cells,no significant effects
